From ChEMBL document CHEMBL1143621, “Identification and structure-activity relationship of phenolic acyl hydrazones as selective agonists for the estrogen-related orphan nuclear receptors ERRbeta and ERRgamma” (J Med Chem, 2005)
pEC50, pIC50: −log10 of the molar value.

Target: T1, Estrogen-related receptor gamma (Homo sapiens, UniProt P62508)
T1 sequence (P62508 whole entry): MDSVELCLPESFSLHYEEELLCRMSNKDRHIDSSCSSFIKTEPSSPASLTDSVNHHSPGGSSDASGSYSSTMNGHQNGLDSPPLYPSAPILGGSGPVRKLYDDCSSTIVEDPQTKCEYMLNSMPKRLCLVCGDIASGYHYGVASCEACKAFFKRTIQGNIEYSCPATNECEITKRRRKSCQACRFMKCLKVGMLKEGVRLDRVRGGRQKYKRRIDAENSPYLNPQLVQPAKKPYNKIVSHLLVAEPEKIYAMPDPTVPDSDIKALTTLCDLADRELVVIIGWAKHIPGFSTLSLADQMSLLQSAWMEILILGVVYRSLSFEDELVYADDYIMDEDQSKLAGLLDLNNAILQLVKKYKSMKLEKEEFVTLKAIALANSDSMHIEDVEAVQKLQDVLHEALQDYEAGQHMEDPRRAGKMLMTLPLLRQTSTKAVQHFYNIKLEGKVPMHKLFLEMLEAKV
Test: Inhibition of [3H]4-OHT binding to Estrogen-Related Receptor gamma; call rule not given here

**Q.** With `CCN(CC)c1ccc(/C=N/NC(=O)c2ccc(O)cc2)cc1` as the molecule, how does the pIC50 read?
**A.** 6.18

Target: T1, Estrogen-related receptor gamma
Test: Estrogen-Related Receptor gamma activity in FRET assay
Assay type: functional

**Q.** With `CCN(CC)c1ccc(/C(C)=N/NC(=O)c2ccc(O)cc2)cc1` as the molecule, how does the pEC50 read?
**A.** 6.30

**Q.** `CCN(CC)c1ccc(/C=N/NC(=O)c2ccccc2)cc1` was tested. Which pEC50 did it give?
**A.** 5.80

**Q.** How did the pEC50 turn out when `CCN(CC)c1ccc(/C=N/NC(=O)c2ccc(N)cc2)cc1` was run?
**A.** 6.20

**Q.** With `CCN(CC)c1ccc(/C=N/NC(=O)c2ccc(O)cc2)cc1` as the molecule, how does the pEC50 read?
**A.** 6.89

Target: T1, Estrogen-related receptor gamma
Test: Estrogen-Related Receptor gamma activity in FRET assay; i.a.=inactive at 3 uM
Assay type: functional

**Q.** For `CCN(CC)c1ccc(/C=N/NC(=O)c2ccc(O)cc2)c(O)c1`, which EC50 is on record?
**A.** Not Active

**Q.** `CC(C)(C)Oc1ccc(/C=N/NC(=O)c2ccc(O)cc2)cc1` was tested. Which EC50 did it give?
**A.** Not Active

**Q.** How did the EC50 turn out when `CCN(CC)c1ccc(/C=N/NC(=O)c2ccc(F)cc2)cc1` was run?
**A.** Not Active

**Q.** How did the EC50 turn out when `CC(C)c1ccc(C(=O)NNC(=O)c2ccc(O)cc2)cc1` was run?
**A.** Not Active

**Q.** Which EC50 does the source give for `CCN(CC)c1ccc(/C=N/NS(=O)(=O)c2ccc(O)cc2)cc1` here?
**A.** Not Active
